The values below come from patent US20210252151A1, “METHOD FOR OPTICAL OPENING OF THE BLOOD-BRAIN BARRIER” (BOARD OF REGENTS, THE UNIVERSITY OF TEXAS SYSTEM, priority 2018, published 2021).

In this data set the test system is BBB of C57BL/6 mice. Put plainly: Delivery of functional molecules to the brain after BBB transient opening. It is filed as in vivo, mouse. To be noted: after TJ-targeting AuNP and ps laser (25 mJ/cm^2, 1 pulse). The procedure:
To measure the penetration of functional molecule, the anti-cancer drug, doxorubicin, and antibody (human IgG) instead of Evans blue dye were inject intravenously. To test endogenous mouse IgG extravasation, the secondary antibody was incubated with mouse brain tissue sections, followed by fluorescent signal detection.

Turning to `COc1cccc2c1C(=O)c1c(O)c3c(c(O)c1C2=O)C[C@@](O)(C(=O)CO)C[C@@H]3O[C@H]1C[C@H](N)[C@H](O)[C@H](C)O1` [Dox, doxorubicin], the “crossing of the BBB (extravasation into brain)” value was “obvious Dox across the BBB”.
